For test [1], the target named is T1, α-7 nicotinic ACh receptor ion channel expressed in mammalian HEK 293 cells (Rattus norvegicus, UniProt Q05941). In words: Ca2+-sensitive, fluorescence-based FLIPR assay for α-7 nicotinic acetylcholine receptor channel function (agonist activity). It counts as cell-based. Set-up: expressed in transfected cells. Particulars: Ca2+ flux, HEK-293 cells, Fluo-4. How it is done: I) α7 Nicotinic Acetycholine Receptor Binding. Membranes were prepared for binding using HEK293 cells stably expressing the rat α7 nicotinic acetycholine receptor (rat α7 nAChR). Cells were homogenized at 4° C. in hypotonic lysis buffer consisting of 10 mM Tris (pH 7.4), 5 mM EDTA and protease inhibitors and centrifuged at 32000×g for 20 minutes. The pellet was washed once in membrane wash buffer consisting of 50 mM Tris (pH 7.4), 1 mM EDTA and protease inhibitors and centrifuged at 32000×g for 20 minutes. This pellet was then resuspended in assay buffer consisting 50 mM KH2PO4 (pH 7.4 at 25° C.), 1 mM EDTA, 0.005% Triton-X 100 and 0.1% (v/v) Sigma Protease Inhibitor Cocktail. Aliquots were then frozen in dry ice/ethanol and kept at −80° C. until the day of the assay. II) A Ca^2+-Sensitive, Fluorescence-Based Assay α-7 for Nicotinic Acetylcholine Receptor Channel Function In Mammalian Cells (“FLIPR”). Summary: Lead compounds are evaluated for agonist activity at α-7, α3β4, α4αβ2, and α1β1δ1ε sub-types of nicotinic ACh receptor ion channels expressed in mammalian HEK 293 cells. Agonist potency and efficacy values are determined from kinetic fluorescence Ca^2+ influx measurements made using a 384 well FLIPR (Fluorescence Image Plate Reader). […] In this assay, channel expressing HEK cell lines seeded in 384 well assay plates are loaded with a membrane permeant fluorescent Ca^2+ indicator dye, whose 510 nm green emission signal increases in response to elevation of intracellular Ca^2+ concentration. The basal fluorescence from the cells is monitored in real time, followed by the acute addition of test compounds.
Materials and Methods: Reagents: The acetomethoxy (AM) ester of the Ca^2+ indicator dye Fluo-4 was obtained from InVitrogen, (Carlsbad, Calif.). Acetylcholine and all buffer constituents were purchased from Sigma Chemical Company, St. Louis, Mo. G418 and Minimal Essential Medium were purchased from InVitrogen Life Technologies, Carlsbad, Calif. Fetal bovine serum was purchased from (InVitrogen, Carlsbad, Calif.).
Cell Culture: HEK-293 cells were grown in Minimal Essential Medium containing 10% (v/v) fetal bovine serum at 37° C. in a 5% CO2 incubator. HEK-293 cells stably expressing the ion channels were grown in the same medium with the addition of 500 μg/ml G418.
Ca^2+ flux assays of Ca^2+ channels expressed in HEK-293 cells: HEK-293 cells expressing the ion channels of interest were plated in 384 well, black-walled, clear-bottomed, poly-D-lysine coated plates at a density of ˜20,000 cells/well in 20 μl of Minimal Essential Medium containing 10% (v/v) fetal bovine serum and incubated for 2 days at 29° C. in a 5% CO2 incubator. Prior to assay, cells were loaded with the Fluo-4 AM ester. […] Dye loading was allowed to proceed for 90 minutes at room temperature at which time the dye loading solution was removed and replaced with 40 μl/well of Hanks buffer. Cells loaded with dye were loaded onto a FLIPR384 (Molecular Devices, Sunnyvale, Calif.). Fluo-4 dye was excited using the 488 nm line of an argon laser. Emission was filtered using a 540+/−30 nm bandpass filter. For evaluation of the effects of test compounds using the Ca^2+ flux assay, compounds to be tested were provided in assay ready plates. For nicotinic receptor ion channel expressing cells, the assay was initiated by the addition of 20 μl/well of Hanks buffer containing test compounds. For all assays, data were collected at 1 Hz for 10 seconds (baseline), at which time the compound containing stimulus buffers are added, and further measurements collected at 0.33 Hz for 3 min.
Data Analysis: The statistical robustness of the nicotinic receptor Ca^2+ flux assays is determined from blanks and totals wells. […] The raw fluorescence units data files generated on the FLIPR plate reader are automatically exported and processed by in-house data analysis tools.
On the technique in general: A change in cytosolic calcium serves as a functional read-out for many receptors and channels.
Target sequence in this assay (Q05941 23-502): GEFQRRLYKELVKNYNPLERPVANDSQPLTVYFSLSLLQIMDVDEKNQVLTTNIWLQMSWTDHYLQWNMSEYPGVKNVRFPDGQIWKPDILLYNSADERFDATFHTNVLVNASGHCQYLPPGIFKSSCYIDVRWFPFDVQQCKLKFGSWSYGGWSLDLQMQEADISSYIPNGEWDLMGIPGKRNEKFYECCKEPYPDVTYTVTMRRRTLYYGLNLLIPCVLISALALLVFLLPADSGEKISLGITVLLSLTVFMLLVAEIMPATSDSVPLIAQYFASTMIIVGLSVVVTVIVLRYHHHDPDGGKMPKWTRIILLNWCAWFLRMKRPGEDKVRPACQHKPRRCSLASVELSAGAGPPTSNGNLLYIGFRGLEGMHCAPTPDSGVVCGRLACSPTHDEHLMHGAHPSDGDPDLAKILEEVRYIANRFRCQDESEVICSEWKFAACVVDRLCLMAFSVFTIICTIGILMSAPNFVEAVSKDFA

The target of test [2] is T1, α-7 nicotinic ACh receptor ion channel expressed in mammalian HEK 293 cells. The test is described as above. It counts as cell-based. How it is done: I) α7 Nicotinic Acetycholine Receptor Binding. Membranes were prepared for binding using HEK293 cells stably expressing the rat α7 nicotinic acetycholine receptor (rat α7 nAChR). Cells were homogenized at 4° C. in hypotonic lysis buffer consisting of 10 mM Tris (pH 7.4), 5 mM EDTA and protease inhibitors and centrifuged at 32000×g for 20 minutes. The pellet was washed once in membrane wash buffer consisting of 50 mM Tris (pH 7.4), 1 mM EDTA and protease inhibitors and centrifuged at 32000×g for 20 minutes. This pellet was then resuspended in assay buffer consisting 50 mM KH2PO4 (pH 7.4 at 25° C.), 1 mM EDTA, 0.005% Triton-X 100 and 0.1% (v/v) Sigma Protease Inhibitor Cocktail. Aliquots were then frozen in dry ice/ethanol and kept at −80° C. until the day of the assay. II) A Ca^2+-Sensitive, Fluorescence-Based Assay α-7 for Nicotinic Acetylcholine Receptor Channel Function In Mammalian Cells (“FLIPR”). Summary: Lead compounds are evaluated for agonist activity at α-7, α3β4, α4αβ2, and α1β1δ1ε sub-types of nicotinic ACh receptor ion channels expressed in mammalian HEK 293 cells. Agonist potency and efficacy values are determined from kinetic fluorescence Ca^2+ influx measurements made using a 384 well FLIPR (Fluorescence Image Plate Reader). […] The basal fluorescence from the cells is monitored in real time, followed by the acute addition of test compounds. […]
Target sequence in this assay (Q05941 23-502 limits assumed): as the sequence (Q05941 23-502) above

[3] abbreviates: FLIPR α7 activity rating (EC50, nM), agonist potency class.
[4] abbreviates: agonist potency class, read-out: FLIPR α7 activity rating (EC50).
Setting [5] is: FLIPR α7-HI (EC50, nM), agonist potency.

Each structure is given as a SMILES string. Read-outs that look alike come from different tables or passages of the source.

Broadly, the EC50 is the concentration giving half of the maximal effect. Consider `Cc1cn(-c2cc(NC3=NC[C@@]4(C[N@@]5CC[C@@H]4C5)O3)ncn2)cn1` [Example 22, (3R,4R)—N-(6-(4-Methyl-1H-imidazol-1-yl)pyrimidin-4-yl)-4′H-1-azaspiro[bicyclo[2.2.1]heptane-3,5′-oxazol]-2′-amine], for which the concentration for a half-maximal effect (EC50) in test [1] (setting [3]) lay within 100 to 1000 nM.
For `Clc1ccc2oc(NC3=NC[C@@]4(C[N@@]5CC[C@@H]4C5)O3)nc2c1` [Example 25, (3R,4R)—N-(5-Chlorobenzo[d]oxazol-2-yl)-4′H-1-azaspiro[bicyclo[2.2.1]heptane-3,5′-oxazol]-2′-amine], the EC50 in test [1] (setting [4]) was less than 100 nM.
Compound `c1ccc2sc(NC3=NC[C@@]4(CN5CC[C@@H]4C5)O3)nc2c1` had an EC50 in test [2] of less than 100 nM.
`c1cn(-c2cc(NC3=NC[C@@]4(C[N@@]5CC[C@@H]4C5)O3)ncn2)cn1` [Example 19, (3R,4R)—N-(6(1H-Imidazol-1-yl)pyrimidin-4-yl)-4′H-1-azaspiro[bicyclo[2.2.1]heptane-3,5′-oxazol]-2′-amine]: the EC50 in test [1] (setting [5]) was 45 nM; in test [1] (setting [3]), less than 100 nM.
In the case of `Clc1cnc(NC2=NC[C@@]3(C[N@@]4CC[C@@H]3C4)O2)c(Cl)c1` (relative stereo) [Example 6, (3R*,4R*)—N-(3,5-Dichloropyridin-2-yl)-4′H-1-azaspiro[bicyclo[2.2.1]heptane-3,5′-oxazol]-2′-amine], the concentration giving a half-maximal response (EC50) is 155 nM in test [1] (setting [5]) and 100 to 1000 nM in test [1] (setting [3]).
In the case of `Cc1csc2c(NC3=NC[C@@]4(C[N@@]5CC[C@@H]4C5)O3)ncnc12` [Example 28, (3R,4R)—N-(7-Methylthieno[3,2-d]pyrimidin-4-yl)-4′H-1-azaspiro[bicyclo[2.2.1]heptane-3,5′-oxazol]-2′-amine], the EC50 in test [1] (setting [5]) was 222 nM; in test [1] (setting [3]), 100 to 1000 nM.
`c1ccc2cc(NC3=NC[C@@]4(C[N@@]5CC[C@@H]4C5)O3)ncc2c1` (relative stereo) [Example 7, (3R*,4R*)—N-(Isoquinolin-3-yl)-4′H-1-azaspiro[bicyclo[2.2.1]heptane-3,5′-oxazol]-2′-amine] gave an EC50 in test [1] (setting [3]) of less than 100 nM.
With `c1ccc2nc(NC3=NC[C@@]4(C[N@@]5CC[C@@H]4C5)O3)nnc2c1` [Example 24, (3R,4R)—N-(Benzo[e][1,2,4]triazin-3-yl)-4′H-1-azaspiro[bicyclo[2.2.1]heptane-3,5′-oxazol]-2′-amine], in test [1] (setting [4]), the EC50 is less than 100 nM.
For `c1ccc(-c2ccnc(NC3=NC[C@@]4(C[N@@]5CC[C@@H]4C5)O3)n2)cc1` [Example 15, (3R,4R)—N-(4-Phenylpyrimidin-2-yl)-4′H-1-azaspiro[bicyclo[2.2.1]heptane-3,5′-oxazol]-2′-amine], in test [1] (setting [3]), the EC50 is less than 100 nM.
In test [1] (setting [3]), `c1cnc2sc(NC3=NCC4(CN5CCC4C5)O3)nc2c1` (single isomer, unassigned) [Example 8b] displayed an EC50 of less than 100 nM.
